Measured values: US12343319B2, “Compositions and methods for treatment of diseases and disorders” (Atai Therapeutics Inc., priority 2023, dated 2025)

Columns and labels:
[1] = molecular target: 5-HT2A (rat) (Rattus norvegicus, UniProt P14842); assay: IPOne, rat 5-HT2A; format: cell-based; conditions: for Emax / 5-HT2A/5-HT2B Selectivity (rat): IPOne; for Emax: rat 5-HT2A, read-out: Emax (% α-Me-5-HT); for 5-HT2A/5-HT2B Selectivity (rat): rat receptors
Source text: Overall, in vitro activity at rodent 5-HT2A and 5-HT2B receptors is consistent with the human receptor results, with compound 2-1 acting as a potent and selective 5-HT2A agonist.
Overall, in vitro activity at rodent 5-HT2A and […] receptors is consistent with the human receptor results, with compound 2-2 acting as a potent and selective 5-HT2A agonist. In Table 5, ND indicates not determined.

[2] = system: Male WKY rats; assay: Sleep-wake behavior, EEG power, body temperature and locomotor activity in WKY rats; format: in vivo, rat
Protocol: Male WKY rats (n=7, 289-388 g at the start of dosing) were housed in groups of 2-3 animals per cage with standard housing conditions. For implantation of the EEG electrodes and radio transmitter, the animals were anesthetized with isoflurane (2-5% in oxygen at 11/min) throughout the procedure. The scalp, neck and right flank were cleared of hair using clippers and cleaned using diluted Hibitane (chlorhexidine, 50% (v/v) in water). A non-steroidal anti-inflammatory agent was administered (carprofen 5 mg/kg, s.c.) and the animals placed on a homeothermic blanket (37° C.) with the head fixed in a stereotaxic frame. Incisions were made in the scalp and neck, as well as in the right flank. Blunt dissection of the abdominal muscle was then made to gain access to the peritoneal cavity. A radio transmitter (HD-S02, Data Sciences International) was implanted in the peritoneal cavity and secured to the muscle wall with non-absorbable sutures. The wires of the transmitter were passed using a 19G needle through the muscle wall and then sub-dermally to the scalp to act as Electroencephalogram (EEG)/Electromyograph (EMG) electrodes. The scalp was cleared of connective tissue and two craniotomies were made with a trepanning drill (fronto-parietal coordinates; Bregma+2 mm anterior, midline+1.0 mm lateral and Lambda 0 mm, +1.5 mm lateral). The positive EEG electrode was attached to the anterior craniotomy and the negative EEG electrode to the posterior craniotomy. Both electrodes were secured in place using a suitable adhesive agent (cyanoacrylate gel, RS components). A second set of electrodes were sutured into the nuchal muscle to act as EMG electrodes. All incisions were closed using absorbable suture.
All animals were allowed to recover in a warm environment and given 5 ml of saline subcutaneously (s.c.). Animals were kept singly in the cage until the next day, then pair housed for the duration of post-surgical recovery (minimum 7 days). During the recovery period, the rats received 5 days of standard post-operative care with no further experimental procedures until the pre-operative body weight was regained. The animals were maintained on a 12/12 hour light dark cycle (08:00 am lights on) after the surgery. Home cages and post-operative cages contained bedding and nesting material, along with environmental enrichment such as wooden chew-sticks and plastic tunnels.
On test days, ˜60 minutes after lights-on, animals were placed in recording boxes similar to their home-cages, except that environmental enrichment was restricted to a large bundle of nesting and bedding material, to avoid interference with the telemeter signals. Then, data acquisition was initiated for confirmation of signal quality. EEG and EMG data were acquired using intraperitoneal HD-S02 transmitters (DSI, New Brighton, MN) and Spike2 software (CED). EEG and EMG signals were digitized 500 samples/second, amplified 1000× and bandpass filtered at 0.5-100 Hertz (Hz). After 60 minutes of habituation, each animal was briefly removed from its box and dosed via the intraperitoneal (i.p.) route in a volume of 2 mL/kg. Test conditions included saline vehicle, psilocybin (10 mg/kg) positive control, compound 2-1 at 3, 10 and 30 mg/kg and compound 2-2 at 10, 17 and 30 mg/kg. Doses were based on the molecular weight of the free bases. compound 2-1 and compound 2-2 dosing solutions were prepared in 40% (w/v) hydroxypropyl-beta-cyclodextrin. After dosing, animals were immediately put back into the recording boxes, the experimenter left the room, and recordings continued uninterrupted for 23 hours. At the end of the recording session, the transmitters were turned off and the animals were returned to their home cages. All animals received all treatment conditions in a pseudo randomized cross-over fashion with a minimum washout period of 7 days between doses.
All data was aligned to zero (the time of dosing), with epochs defined as non-overlapping 10-second time segments. […]

[3] = molecular target: T1, 5-HT5A (Homo sapiens, UniProt P47898); assay: cAMP, 5-HT5A; format: cell-based
T1 construct: expressed in transfected cells
Protocol: In vitro pharmacology studies were performed to evaluate the effects of compound 2-1 on functional activity of several 5-HT receptors using recombinant target overexpression cell culture systems. The effect of compound 2-1 on G protein-dependent signaling was investigated at 5-HT2A, 5-HT2B, and 5-HT2C receptors with calcium mobilization and IPOne assays; and at 5-HT1A, 5-HT1B, 5-HT1F, 5-HT5A, and 5-HT7D receptors with a cAMP assay. G protein-independent signaling was investigated at the 5-HT2A receptor with a β-Arrestin assay.
In vitro pharmacology studies were performed to evaluate the effects of compound 2-2 on functional activity at several 5-HT receptors using recombinant target overexpression cell culture systems. The effect of compound 2-2 on G protein-dependent signaling was investigated at 5-HT2A, 5-HT2B, and 5-HT2C receptors with calcium mobilization and IPOne assays; and at 5-HT1A, 5-HT1B, 5-HT1F, 5-HT5A, and 5-HT7D receptors with a cAMP assay. G protein-independent signaling was investigated at the 5-HT2A receptor with a β-arrestin assay. […] In Table 4, 5-HT receptor selectivity was calculated using ΔΔlog(Emax/EC50). Assay reference α-Me-5-HT or 5-HT was used for normalization at each receptor (5-HT2A/5-HT2B selectivity=1; 5-HT2A/5-HT2C selectivity=1). ND in Table 4 indicates, not determined, plateau was not reached within the concentration range tested to determine Emax.

[4] = over 6 hours post dose, WKY rats, IP
[5] = male WKY rats, IP, initial 4 hours following dosing

T1 sequence (P47898 whole entry): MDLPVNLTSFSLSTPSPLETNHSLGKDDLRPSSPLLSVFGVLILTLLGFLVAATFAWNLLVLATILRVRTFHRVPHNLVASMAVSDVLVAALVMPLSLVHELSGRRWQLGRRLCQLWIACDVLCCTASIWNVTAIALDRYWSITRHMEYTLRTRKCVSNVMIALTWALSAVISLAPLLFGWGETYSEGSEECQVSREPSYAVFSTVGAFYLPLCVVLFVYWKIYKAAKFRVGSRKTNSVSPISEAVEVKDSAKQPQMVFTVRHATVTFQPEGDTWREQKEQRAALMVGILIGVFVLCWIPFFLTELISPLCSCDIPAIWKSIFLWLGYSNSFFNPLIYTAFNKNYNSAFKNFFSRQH
Chain of 5-HT2A (rat) (P14842 whole entry): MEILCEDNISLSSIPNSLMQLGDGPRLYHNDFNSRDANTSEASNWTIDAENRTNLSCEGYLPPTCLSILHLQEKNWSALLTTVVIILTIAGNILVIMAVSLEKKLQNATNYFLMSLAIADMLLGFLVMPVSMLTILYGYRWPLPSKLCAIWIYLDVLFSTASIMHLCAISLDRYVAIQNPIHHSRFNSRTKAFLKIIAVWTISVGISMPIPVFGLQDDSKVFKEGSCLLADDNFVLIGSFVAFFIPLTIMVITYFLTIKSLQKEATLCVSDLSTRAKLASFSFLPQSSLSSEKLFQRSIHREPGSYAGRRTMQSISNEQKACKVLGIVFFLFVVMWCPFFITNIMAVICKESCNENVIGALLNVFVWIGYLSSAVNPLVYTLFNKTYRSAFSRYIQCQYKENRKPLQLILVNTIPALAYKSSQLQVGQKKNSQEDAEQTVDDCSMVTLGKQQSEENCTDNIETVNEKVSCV

## COc1ccc(OC)c(CCNCc2cc(C)cc(F)c2)c1 [Compound 2-2, 2-(2,5-dimethoxyphenyl)-N-(3-fluoro-5-methylbenzyl)ethan-1-amine]
[1]
  EC50: 7.2 nM
  Emax: 105%
  5-HT2A/5-HT2B Selectivity (rat): >100000
[2]; male WKY rats
  effects on body temperature and locomotor activity: minimal effects
[2]; [4]
  Locomotor activity: No Δ (No significant change)
[3]
  EC50: > 30000 nM

## COc1ccc(OC)c(CCNCc2cc(C)cc(Cl)c2)c1 [Compound 2-1, N-(3-chloro-5-methylbenzyl)-2-(2,5-dimethoxyphenyl)ethan-1-amine]
[1]
  EC50: 3.06 nM
  Emax: 99.5%
  5-HT2A/5-HT2B Selectivity (rat): >100000
[1]; rat 5-HT2A receptor
  agonist activity (in words): full agonist activity
[2]; 3 mg/kg i.p., interval starting at 5 hours post dose
  non-REM sleep amount vs vehicle: significantly increased
[2]; 10 mg/kg i.p.
  latency to non-REM (NREM) sleep vs vehicle: significantly increased
[2]; 30 mg/kg i.p.
  persistence of significant effect on delta power during non-REM sleep: persisted through the period starting at 4 hours post dose
[2]; 30 mg/kg i.p., over 24 hours post dose
  high gamma power during waking: significant and lasting decrease
[2]; 3, 10 and 30 mg/kg i.p.
  amount of time spent in wake vs vehicle: significantly increased
[2]; 3, 10 and 30 mg/kg i.p., first 3 hours after administration
  amount of time spent in non-REM sleep vs vehicle: significantly decreased
[2]; 3, 10 and 30 mg/kg i.p., post-dose period 0-2 hours
  low frequency (delta and theta) power during non-REM sleep: significantly decreased
[2]; 10 and 30 mg/kg i.p.
  latency to REM sleep vs vehicle: significantly increased
[2]; 10 and 30 mg/kg i.p., starting in the third hour post dose
  amount of time spent in REM sleep vs vehicle: significantly decreased
[2]; [5]
  waking high gamma power: decreased
  waking theta and beta power: significantly increased
[2]; [4]
  body temperature: ↓ (for 6 h)
[3]
  EC50: 25.2 nM
[3]; cAMP, human 5-HT5A, read-out: Emax (%5-HT)
  Emax: 44.4%
[3]; human 5-HT5A receptor
  agonist activity (in words): partial agonist activity
